Source: paper PMC10054552, “Phototoxic Potential of Different DNA Intercalators for Skin Cancer Therapy: In Vitro Screening” (International Journal of Molecular Sciences, 2023)
Read-outs that look alike come from different tables or passages of the source.

Legend:
MET1 cells [1] = test: Phototoxicity assay in MET1 cells (irradiation 2.5 J/cm², resazurin); format: cell-based, human; settings: for phototoxicity in the investigated range: 1.25-40 µM, irradiated vs dark
Experimental: (§1) The […] SCC cell line (human squamous cell carcinoma) was obtained from Ximbio (London, UK), HaCaT (immortalized human keratinocytes cell line) was obtained from Addexbio (San Diego, CA, USA) and WM983b (human metastatic melanoma cell line) was obtained from Rockland (Pottstown, PA, USA). […] Cells were cultivated in an incubator (Sanyo MCO-19AIC-UV) at 37 °C in a 5% CO2 humidified atmosphere. […] The plates were incubated for 24 h, followed by washing with PBS supplemented with calcium and magnesium. Afterwards, complete culture medium without phenol red was added, and the plates were irradiated from above and submitted to a dose of 2.5 J/cm2 of irradiation emitted by different wavelength light sources coupled with a homemade irradiation system created in our laboratory. […] This experiment was performed in an incubator that was able to keep plates in a dark environment; therefore, the dark control plates were protected from any light source, as well as the others, with the exception of the irradiation that each one was submitted to. Plates were incubated for another 24 h, and finally, the resazurin assay was performed as previously described in Section 3.3. For the phototoxicity study using WM983b cells, plates were prepared at a cell density of 40,000 cells/cm2, and cells were treated with MB and AO only.

MET1 cells [2] = test: Cytotoxicity (resazurin cell viability) in MET1 cells; format: cell-based, human
Source text: (§2) The MET1 SCC cell line (human squamous cell carcinoma) was obtained from Ximbio (London, UK), HaCaT (immortalized human keratinocytes cell line) was obtained from Addexbio (San Diego, CA, USA) and WM983b (human metastatic melanoma cell line) was obtained from Rockland (Pottstown, PA, USA). Cells were maintained in Dulbecco’s Modified Eagle Medium (DMEM) supplemented with 10% (v/v) fetal bovine serum (FBS) for MET1 and HaCaT and 5% (v/v) for WM983b cells, and Pen–Strep (penicillin 100 U/mL and streptomycin 100 µg/mL). Cells were cultivated in an incubator (Sanyo MCO-19AIC-UV) at 37 °C in a 5% CO2 humidified atmosphere.
(§3) First, 96-well plates were seeded with HaCaT and MET1 cells at a density of 20,000 cells/cm² and incubated for 24 h. After that period, the culture medium was replaced by culture medium containing different compounds: MB, AO, GV, QT, CUR, EGCG, PHE, NEO and BIPY. The compounds were diluted in culture medium using a range of concentrations of each compound from 1.25 µM to 320 µM (in quadruplicate). The medium was aspirated from the 96-well plate and replaced by the samples diluted in medium. Cells cultured with complete medium and cells cultured with medium supplemented with 0.2% (v/v) or 10% (v/v) of DMSO were used as negative (NC), solvent (SC) and positive controls (PC), respectively. The plates were incubated for 24 and 48 h, followed by evaluation of cell viability using a colorimetric assay. Cells containing samples were washed with PBS supplemented with calcium and magnesium; then, resazurin solution diluted in DMEM at 0.02 mg/mL was added. The medium containing resazurin was also dispensed in wells without cells, which were used as references. After 3 h of incubation, the absorbance was measured in a microplate reader (ELX800UV, Biotek Instruments) at wavelengths of 570 nm and 600 nm. The corrected absorbance was proportional to cell viability. Propagation of uncertainties was used to calculate the combined standard uncertainty. For the cytotoxicity study using WM983b cells, plates were seeded at a density of 40,000 cells/cm², and cells were treated only with MB and AO.

HaCaT cells = test: Cytotoxicity (resazurin cell viability) in HaCaT cells; format: cell-based, human
Source text: as §2, §3

[3] = Phototoxicity assay in MET1 cells (irradiation 2.5 J/cm², resazurin); format: cell-based, human; settings: human, MET1 squamous cell carcinoma cells, MET1 cells, dark
Experimental: as §1

WM983b cells [4] = test: Phototoxicity assay in WM983b cells (irradiation 2.5 J/cm², resazurin); format: cell-based; settings: Homo sapiens, light or radiation study, treated 24 h
Source text: as §2
For the phototoxicity studies, 96-well plates were seeded with MET1 cells at a density of 20,000 cells/cm², incubated overnight and treated for 24 h with MB, AO, GV, QT, CUR, EGCG, PHE, NEO and BIPY diluted in culture medium in a concentration range of 1.25 µM to 40 µM (in sextuplicate). […] Cells cultured with complete medium and cells cultured with medium supplemented with 0.2% (v/v) or 10% (v/v) of DMSO were used as negative (NC), solvent (SC) and positive control (PC), respectively. The plates were incubated for 24 h, followed by washing with PBS supplemented with calcium and magnesium. Afterwards, complete culture medium without phenol red was added, and the plates were irradiated from above and submitted to a dose of 2.5 J/cm² of irradiation emitted by different wavelength light sources coupled with a homemade irradiation system created in our laboratory. These light sources consisted of an equivalent 26 cm UV tubular lamp (254 nm) (Phillips TUV PLS 9W/2PHg) and a tricolor LED lamp (Led Grow Light Bulb E26/E27) with intensity peaks at 457 nm (blue light), 583 nm (yellow light) and 640 nm (red light) provided by 18, 18 and 28 LEDs, respectively, with dimensions of 3 × 3 mm^2. The irradiance values of light at 254, 457, 583 and 640 nm wavelengths were of 16.7, 55, 45 and 25 W/m^2, respectively. This experiment was performed in an incubator that was able to keep plates in a dark environment; therefore, the dark control plates were protected from any light source, as well as the others, with the exception of the irradiation that each one was submitted to. Plates were incubated for another 24 h, and finally, the resazurin assay was performed as previously described in Section 3.3. For the phototoxicity study using WM983b cells, plates were prepared at a cell density of 40,000 cells/cm², and cells were treated with MB and AO only.

WM983b cells [5] = test: Cytotoxicity (resazurin cell viability) in WM983b cells; format: cell-based, human; settings: for IC50: Homo sapiens, 1.25-320 µM
Source text: as §2, §3

[6] = Homo sapiens, MET-1, light or radiation study, MET1 cells, treated 24 h, 254 nm light, 2.5 J/cm², read-out: IC50 254 nm
[7] = Homo sapiens, MET-1, light or radiation study, MET1 cells, treated 24 h, 457 nm light, 2.5 J/cm², read-out: IC50 457 nm
[8] = Homo sapiens, MET-1, light or radiation study, MET1 cells, treated 24 h, 583 nm light, 2.5 J/cm², read-out: IC50 583 nm
[9] = Homo sapiens, MET-1, light or radiation study, MET1 cells, treated 24 h, 640 nm light, 2.5 J/cm², read-out: IC50 640 nm
[10] = Homo sapiens, MET-1, light or radiation study, MET1 cells, treated 24 h, dark control (no irradiation), read-out: IC50 Dark
[11] = Homo sapiens, MET-1, MET1 cells, 24 h exposure, 1.25-320 µM, read-out: IC50 MET1 Cells 24 h
[12] = Homo sapiens, MET-1, MET1 cells, 48 h exposure, 1.25-320 µM, read-out: IC50 MET1 Cells 48 h
[13] = Homo sapiens, MET-1, MET1 cells, exposure time not given, read-out: IC50 in MET1 cells (summary statement)
[14] = Homo sapiens, HaCaT cells, 24 h exposure, 1.25-320 µM, read-out: IC50 HaCaT Cells 24 h
[15] = Homo sapiens, HaCaT cells, 48 h exposure, 1.25-320 µM, read-out: IC50 HaCaT Cells 48 h
[16] = Homo sapiens, MET-1, light or radiation study, MET1 cells, light condition not stated, read-out: IC50 phototoxicity results (summary statement)

Row | SMILES | IC50 (MET1 cells [1]; [6]) [µM] | IC50 (MET1 cells [1]; [7]) [µM] | IC50 (MET1 cells [1]; [8]) [µM] | IC50 (MET1 cells [1]; [9]) [µM] | IC50 (MET1 cells [1]; [10]) [µM] | IC50 (MET1 cells [2]; [11]) [µM] | IC50 (MET1 cells [2]; [12]) [µM] | IC50 (MET1 cells [2]; [13]) [µM] | IC50 (HaCaT cells; [14]) [µM] | IC50 (HaCaT cells; [15]) [µM] | other results
1 | c1cnc2c(c1)ccc1cccnc12 [1,10-phenanthroline] | 6 | 4.9 | 6.8 | 4.8 | 7.4 | 124 | 7.7 | > 100 | 35.2 | 5.9 | –
2 | c1ccc(-c2ccccn2)nc1 [2,2′-bipyridyl] | – | – | – | – | – | – | – | – | – | – | IC50 (MET1 cells [1]; Homo sapiens, MET-1, light or radiation study, 24 h, read-out: IC50 254 nm): 225 µM; IC50 (MET1 cells [1]; Homo sapiens, MET-1, light or radiation study, 24 h, read-out: IC50 457 nm): 171 µM; IC50 (MET1 cells [1]; Homo sapiens, MET-1, light or radiation study, 24 h, read-out: IC50 583 nm): 190 µM; IC50 (MET1 cells [1]; Homo sapiens, MET-1, light or radiation study, 24 h, read-out: IC50 640 nm): 202 µM; IC50 (MET1 cells [1]; Homo sapiens, MET-1, light or radiation study, 24 h, read-out: IC50 Dark): 228 µM; IC50 (MET1 cells [1]; Homo sapiens, MET-1, light or radiation study, read-out: IC50 phototoxicity results (summary statement)): > 100 µM; phototoxicity in the investigated range (MET1 cells [1]; MET1 cells): did not show phototoxicity; IC50 (MET1 cells [2]; Homo sapiens, MET-1, 24 h, read-out: IC50 MET1 Cells 24 h): 275 µM; IC50 (MET1 cells [2]; Homo sapiens, MET-1, 48 h, read-out: IC50 MET1 Cells 48 h): 97.2 µM; IC50 (MET1 cells [2]; Homo sapiens, MET-1, read-out: IC50 in MET1 cells (summary statement)): > 100 µM; IC50 (HaCaT cells; Homo sapiens, HaCaT, 24 h, read-out: IC50 HaCaT Cells 24 h): 125 µM; IC50 (HaCaT cells; Homo sapiens, HaCaT, 48 h, read-out: IC50 HaCaT Cells 48 h): 57.8 µM
3 | COc1cc(/C=C/C(=O)CC(=O)/C=C/c2ccc(O)c(OC)c2)ccc1O [Curcumin, curcumin] | 9.3 | 10.7 | 11.5 | 11 | 15.5 | 26 | 7.2 | < 30 | 9 | 11.7 | IC50 (MET1 cells [1]; Homo sapiens, MET-1, light or radiation study, MET1 cells, 640, 583, 457 and 254 nm, 2.5 J/cm², read-out: IC50 values under irradiation (all wavelengths together)): < 11.5 µM; IC50 (MET1 cells [1]; [16]): < 20 µM
4 | O=C(O[C@@H]1Cc2c(O)cc(O)cc2O[C@@H]1c1cc(O)c(O)c(O)c1)c1cc(O)c(O)c(O)c1 [Epigallocatechin gallate, epigallocatechin gallate] | – | – | – | – | – | – | – | – | – | – | phototoxicity in the investigated range (MET1 cells [1]; MET1 cells): no phototoxicity was observed; IC50 (MET1 cells [1]; MET1 cells, light condition not stated, read-out: IC50 phototoxicity results (summary statement)): > 100 µM; IC50 (MET1 cells [1]; MET1 cells, treated 24 h, 254 nm light, 2.5 J/cm², read-out: IC50 254 nm): 193 µM; IC50 (MET1 cells [1]; MET1 cells, treated 24 h, 457 nm light, 2.5 J/cm², read-out: IC50 457 nm): 222 µM; IC50 (MET1 cells [1]; MET1 cells, treated 24 h, 583 nm light, 2.5 J/cm², read-out: IC50 583 nm): 211 µM; IC50 (MET1 cells [1]; MET1 cells, treated 24 h, 640 nm light, 2.5 J/cm², read-out: IC50 640 nm): 224 µM; IC50 (MET1 cells [1]; MET1 cells, treated 24 h, dark control (no irradiation), read-out: IC50 Dark): 191 µM; IC50 (MET1 cells [2]; MET1 cells, 24 h exposure, 1.25-320 µM, read-out: IC50 MET1 Cells 24 h): 174 µM; IC50 (MET1 cells [2]; MET1 cells, 48 h exposure, 1.25-320 µM, read-out: IC50 MET1 Cells 48 h): 136 µM; IC50 (HaCaT cells; HaCaT cells, 24 h exposure, 1.25-320 µM, read-out: IC50 HaCaT Cells 24 h): 211 µM; IC50 (HaCaT cells; HaCaT cells, 48 h exposure, 1.25-320 µM, read-out: IC50 HaCaT Cells 48 h): 174 µM
5 | CN(C)c1ccc(C(=C2C=CC(=[N+](C)C)C=C2)c2ccc(N(C)C)cc2)cc1 [Gentian violet, gentian violet] | 1.5 | 2.7 | 1 | 1.8 | 2.9 | 3.9 | 1.2 | – | 2.8 | 0.9 | viability at 24 h, 1.25 µM ([3]; 1.25 µM, read-out: relative cell viability, dark condition, lowest concentration): < 60%
6 | CN(C)c1ccc2nc3ccc(=[N+](C)C)cc-3sc2c1 [Methylene blue, methylene blue] | 4.3 | 6.2 | 5 | 3.8 | 10.9 | 14.2 | 4.2 | – | 11.6 | 7.1 | IC50 (WM983b cells [4]; 640 nm light, 2.5 J/cm², read-out: IC50 irradiated samples (640 nm)): 2.1 µM; IC50 (WM983b cells [4]; without irradiation, read-out: IC50 non-irradiated samples): 7.3 µM; concentration above which the relative cell population falls below 70% (WM983b cells [5]; 24 or 48 h): above 10 µM; IC50 (WM983b cells [5]; 24 h exposure, read-out: IC50 WM983b cells 24 h): 18 µM; IC50 (WM983b cells [5]; 48 h exposure, read-out: IC50 WM983b cells 48 h): 6.1 µM
7 | Cc1ccc2ccc3ccc(C)nc3c2n1 [Neocuproine, neocuproine] | – | – | – | – | – | > 320 | > 320 | – | > 320 | 159 | viability at 24 h ([3]; 1.25-40 µM, read-out: cell viability under dark conditions): < 70%
8 | O=c1c(O)c(-c2ccc(O)c(O)c2)oc2cc(O)cc(O)c12 [Quercetin, quercetin] | 205 | 288 | 269 | 340 | 230 | > 320 | 110 | > 100 | > 320 | 315 | IC50 (MET1 cells [1]; [16]): > 100 µM
